Test results reported in publication PMC8763243, “Synthesis of Novel Suramin Analogs With Anti-Proliferative Activity via FGF1 and FGFRD2 Blockade” (Frontiers in Chemistry, 2022).
Several values for one entry are separate records, joined by “and”; a condition that tells them apart may be missing. Equal entries are not always repeated.

Tests used:
[1] = WST-1 assay, cytotoxicity in normal breast epithelial cell line (non-tumorigenic); type: cell-based; conditions: human; non-tumorigenic MCF-10A cells; read-out: estimated IC50 (cytotoxicity)
Description: (§1) The water-soluble tetrazolium salt (WST-1) assay was performed to assess the effects of the compounds on cell proliferation and cytotoxicity. DMEM/F12 containing 10% FBS was used for the cell culture, and incubation was performed in 5% CO2 till the logarithmic growth phase was achieved. On the day before the experiment, the cells were trypsinized and seeded in a 96-well plate at a density of 5000 cells/well. For the FGF1-stimulated cell proliferation assay, the cells were then incubated for 24 h in a serum-free medium containing 0.1% bovine serum albumin (BSA). Serum-starved cells with or without a specified concentration of suramin, 14, 15, 17, 18, 21, and FGFRD2 were stimulated with 100 nM of FGF1 again for 48 h. For the purpose of the cytotoxicity assay, the cells were treated with an increased concentration of suramin and compounds 14, 17, 15, 18, and 21 (Figure 6) for 48 h. Also, 1/10 of the volume of WST-1 cell reagent was inserted in every well and maintained at 37°C for another 4 h before harvesting. There was gentle agitation of the medium in the cell culture plate for 10 min using a shaker. A Synergy 2 microplate reader (BioTek Instruments, Inc., VT, United States) was used to measure the absorbance at 450 nm. The relative absorbance was compared with the control treatment to determine the relative cell number.
In order to gain some insight about the selectivity of the compounds between tumorigenic and non-tumorigenic cells, the cytotoxicity was also being evaluated against normal breast cell lines by examining the cytotoxicity of suramin and its derivatives, compounds 15, 18, and 21, in a normal breast epithelial cell line (non-tumorigenic), MCF-10A. […] Compared to their cytotoxicity in tumorigenic MCF-7 cells (Figure 6), the estimated IC50 values in MCF-10A were higher than those in MCF-7 cells. […] However, the estimated IC50 value of suramin and its derivatives in both non-tumorigenic MCF-10A and tumorigenic MCF-7 cells were over 100 μM. The effective concentrations of suramin and its derivatives to attenuate FGF1-stimulated cell proliferation in MCF-7 cells were around 1 μM (Figure 5), which is non-toxic concentration to both MCF-7 cells and MCF-10A cells. […] Therefore, in addition to the specificity of each drug, the selectivity of suramin and its derivatives to disrupt the FGF1/FGFR-mediated breast cancer growth might rely on the overexpression or amplification of FGFR2 in breast cancer cells, but not in normal cells, and the secreted FGF1 ligand by autocrine or paracrine effects from cancer cells or their surrounding stroma cells or adipocytes (tumor microenvironment). The statistical data for the cytotoxicity are shown in Supplementary Figure S8.

[2] = target: T1, FGF1 (Homo sapiens, UniProt P05230); assay: Fluorescence spectroscopy binding constant of FGF1 and suramin derivatives; conditions: fluorescence quenching, 5 µM FGF1, non-linear regression with Stern–Volmer equation, pH 6.5
T1 construct: made in house
T1 sequence (P05230 whole entry): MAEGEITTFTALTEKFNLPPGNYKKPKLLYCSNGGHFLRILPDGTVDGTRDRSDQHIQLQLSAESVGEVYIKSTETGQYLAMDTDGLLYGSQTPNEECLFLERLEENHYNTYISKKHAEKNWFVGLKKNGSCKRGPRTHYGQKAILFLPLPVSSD
Description: The binding constant Kd was calculated for FGF1 and the five derivatives in a buffer containing 10% D2O, 50 mM AMS, 20 mM phosphate buffer, and 50 mM NaCl at pH 6.5 using an F-2500 Hitachi fluorescence spectrophotometer.
[…] has tremendous significance for biochemical application because it provides valuable knowledge about the probability of quencher activity. The anti-mitogenic activity of the five compounds was achieved by the same mechanism in which suramin inhibits the mitogenic activity of FGF1. A non-linear regression curve was plotted for the relative intensities of activity versus drug concentration using the Stern–Volmer equation (Eq. 1). log(F0−F)/F=logK+nlog[Q], (1)
where F0 represents the fluorescence intensity in the absence of the compounds, and F represents the fluorescence intensity in the presence of the [Q] concentration of the compounds.
Increasing concentrations of these five suramin derivatives were added to a solution containing 5 µM FGF1. A reduction in the fluorescence intensity was reported for all five suramin derivatives. The Stern–Volmer equation was used to calculate the binding constant between FGF1 and compounds 14, 15, 17, 18, and 21 for relative intensities versus the total concentration in a non-linear regression curve.

[3] = Exposure stability study by 1H NMR in DMSO-d6 and D2O; type: physicochemical; conditions: 0.017 mol/L in DMSO-d6 and D2O, 11 days
Description: The stability of the compounds was verified in both aqueous and DMSO solutions. In aqueous medium, the stability of the suramin derivatives 15 and 18 were considered to verify the stability. A control experiment consisting of a DMSO-d 6 (0.017 mol/L) solution of 15 and a D2O solution of 15 (0.017 mol/L) was maintained on the laboratory bench. All experiments were performed in NMR tubes containing 0.017 mol/L solutions of compounds 15 and 18 in DMSO-d 6 and D2O, respectively. NMR spectra were recorded over 11 days (initially daily for 1 week).
10 mg of the newly synthesized compound was diluted in 500 µL DMSO-d 6 under investigation in a 5-mm NMR tube. The procedure was maintained as it is for 11 days in the solution. The ^1H NMR spectrum was recorded daily for 4 days up to 11 days.
10 mg of the novel compound was diluted in 500 µL D2O under investigation in a 5-mm NMR tube. The procedure was maintained as it is for 11 days in the solution. The ^1H NMR spectrum was recorded daily for 4 days up to 11 days.

[4] = WST-1 assay, cytotoxicity in tumorigenic cells; type: cell-based, human; conditions: human; MCF-7 cells, 48 h, SigmaPlot; read-out: estimated IC50 (cytotoxicity)
Description: as §1
(§2) […] […] The reason for the higher cytotoxicity was the presence of methyl groups on the suramin structure ([Martello et al., 2001]).
(§3) Suramin-induced neuropathy may depend on the effects on calcium (Ca^2+) homeostasis as a potential pathological mechanism, and the full or partial positive charge of the element when directly attached to the ring at each of the sulphonic groups (HSO3). These interactions exert a moderate to strong electron-withdrawing inductive effect, which may be responsible for the observed suramin cytotoxicity ([Prasetyaningrum et al., 2018]; [Von Der Ahe et al., 2018]). The cytotoxicity of the synthesized analogs was lower as there were methyl groups and no sulfonic acid groups attached to the suramin backbone. The IC50 values of the synthesized compounds in MCF-7 breast cancer cells were analyzed using SigmaPlot software.

[5] = test system: MCF-7 cells; assay: WST-1 assay, cytotoxicity in tumorigenic cells; type: cell-based, human; conditions: for Mean (Blank 450) / Fold (mean) / Blank 450 / Fold: S8; for Fold (mean): relative to control; for Blank 450: single replicate absorbance; for Fold: single replicate relative to control; for cytotoxicity compared with suramin: MCF-7 cells, 1-100 µM, 48 h, especially at concentrations higher than 10 µM
Description: as §1, §2, §3

In the case of `O=C(Nc1ccc(C(=O)Nc2cc(S(=O)(=O)[O-])cc3cc(S(=O)(=O)[O-])cc(S(=O)(=O)[O-])c23)cc1)Nc1ccc(C(=O)Nc2cc(S(=O)(=O)[O-])cc3cc(S(=O)(=O)[O-])cc(S(=O)(=O)[O-])c23)cc1.[Na+].[Na+].[Na+].[Na+].[Na+].[Na+]` [Compound 15, Sodium 8,8'-((4,4'-(carbonylbis (azanediyl))bis (benzoyl))bis (azanediyl))bis (naphthalene-1,3,6-trisulfonate)], the IC50 at 48 h [1] is reported as 221 ± 3.57 µM, the Kd [2] is reported as 20.9 µM and the “stability in solution (1H NMR)” value [3] is reported as “remarkably stable”. The IC50 at 48 h [4] was over 100 µM, the “Mean (Blank 450)” value ([5]; 1 uM) was 1.163 and the “Fold (mean)” value ([5]; 1 uM) was 1.00. The “Blank 450” value ([5]; 1 uM) was 1.143 and 1.162 and 1.195 and 1.152, the Fold ([5]; 1 uM) was 0.981 and 0.997 and 1.026 and 0.989 and the “Mean (Blank 450)” value ([5]; 5 uM) was 1.146. The “Fold (mean)” value ([5]; 5 uM) was 0.98, the “Blank 450” value ([5]; 5 uM) was 1.161 and 1.116 and 1.206 and 1.101 and the Fold ([5]; 5 uM) was 0.996 and 0.958 and 1.035 and 0.945. For the same compound, the “Mean (Blank 450)” value ([5]; 10 uM) was 1.122, the “Fold (mean)” value ([5]; 10 uM) was 0.96 and the “Blank 450” value ([5]; 10 uM) was 1.151 and 1.117 and 1.059 and 1.162. The Fold ([5]; 10 uM) was 0.988 and 0.959 and 0.909 and 0.997, the “Mean (Blank 450)” value ([5]; 50 uM) was 0.982 and the “Fold (mean)” value ([5]; 50 uM) was 0.84. For the same compound, the “Blank 450” value ([5]; 50 uM) was 0.998 and 1.012 and 0.955 and 0.961, the Fold ([5]; 50 uM) was 0.856 and 0.868 and 0.820 and 0.825 and the “Mean (Blank 450)” value ([5]; 100 uM) was 0.880. For the same compound, the “Fold (mean)” value ([5]; 100 uM) was 0.75, the “Blank 450” value ([5]; 100 uM) was 0.927 and 0.887 and 0.833 and 0.872 and the Fold ([5]; 100 uM) was 0.796 and 0.761 and 0.715 and 0.748. The “cytotoxicity compared with suramin” value [5] was “less toxic”.
With `O=C(Nc1ccc(C(=O)Nc2ccc(C(=O)Nc3cc(S(=O)(=O)O)cc4cc(S(=O)(=O)O)cc(S(=O)(=O)O)c34)cc2)cc1)Nc1ccc(C(=O)Nc2ccc(C(=O)Nc3cc(S(=O)(=O)O)cc4cc(S(=O)(=O)O)cc(S(=O)(=O)O)c34)cc2)cc1` [Compound 18, Sodium 8,8'-((4,4'-((4,4'-(carbonylbis (azanediyl))bis (benzoyl))bis (azanediyl))bis (benzoyl))bis(azanediyl)) bis (naphthalene-1,3,6-trisulfonate)] the IC50 at 48 h [1] was 653.4 ± 2.31 µM, the Kd [2] was 15.5 µM and the “stability in solution (1H NMR)” value [3] was “remarkably stable”. For the same compound, the IC50 at 48 h [4] was over 100 µM, the “Mean (Blank 450)” value ([5]; 1 uM) was 1.224 and the “Fold (mean)” value ([5]; 1 uM) was 1.05. The “Blank 450” value ([5]; 1 uM) was 1.234 and 1.224 and 1.182 and 1.256, the Fold ([5]; 1 uM) was 1.059 and 1.050 and 1.014 and 1.078 and the “Mean (Blank 450)” value ([5]; 5 uM) was 1.176. For the same compound, the “Fold (mean)” value ([5]; 5 uM) was 1.01, the “Blank 450” value ([5]; 5 uM) was 1.176 and 1.214 and 1.141 and 1.173 and the Fold ([5]; 5 uM) was 1.009 and 1.042 and 0.979 and 1.007. The “Mean (Blank 450)” value ([5]; 10 uM) was 1.160, the “Fold (mean)” value ([5]; 10 uM) was 1.00 and the “Blank 450” value ([5]; 10 uM) was 1.108 and 1.161 and 1.207 and 1.165. The Fold ([5]; 10 uM) was 0.951 and 0.996 and 1.036 and 1.000, the “Mean (Blank 450)” value ([5]; 50 uM) was 1.139 and the “Fold (mean)” value ([5]; 50 uM) was 0.98. The “Blank 450” value ([5]; 50 uM) was 1.184 and 1.149 and 1.053 and 1.169, the Fold ([5]; 50 uM) was 1.016 and 0.986 and 0.904 and 1.003 and the “Mean (Blank 450)” value ([5]; 100 uM) was 1.057. The “Fold (mean)” value ([5]; 100 uM) was 0.91, the “Blank 450” value ([5]; 100 uM) was 1.098 and 1.004 and 1.043 and 1.081 and the Fold ([5]; 100 uM) was 0.942 and 0.862 and 0.895 and 0.928. For the same compound, the “cytotoxicity compared with suramin” value [5] was “less toxic”.
